Values of other authors, collected in publication PMC9034292 (The Journal of Biological Chemistry, 2022).

How the values were obtained:
[1] = test system: HIV-1 RT–associated RNase H
[2] = one divalent cation-coordinating ion

Inhibition of HIV RNase H [1] | Manner of inhibition of HIV-1 RT–associated RNase H [1] | Inhibition of HBV RNase H (HBV RNase H) | Kd [2] [µM] | logK (stability constant) [2] | Molecule
inhibits | reversible noncompetitive | inhibits | – | – | CC(C)c1ccc(O)c(=O)c(O)c1 [β-thujaplicinol]
– | – | – | 150 | 3.82 | dihydroxytropylium ion
